According to patent publication US20100311835A1, “CIS-9, TRANS-11 ISOMER OF CONJUGATED LINOLEIC ACID (CLA) FOR TREATING INFLAMMATORY DISEASES” (COGNIS IP MANAGEMENT GMBH, priority 2003, published 2010):

Columns and labels:
IL-8 [1] = assay: IL-8 in cell culture supernatants by ELISA, stimulated NHBE; format: cell-based, human; conditions: 24 h
Method: (§1) • Cell cultures. The transformed human bronchial epithelial cell line BEAS-2B (Clonetics Cell Systems, St. Katharinen, Germany) and the normal human bronchial epithelial cell line in primary culture (American Type Culture Collection, Manassas, Va., USA) were cultured in T-25-tissue flasks in bronchial/tracheal epithelial cell basal medium (BEBM) supplemented with a variety of growth factors including bovine pituitary extract (0,052 mg/mL), human recombinant epidermal growth factor (0.5 ng/mL), hydrocortisone (0.5 μg/mL), epinephrine (0.5 μg/mL), transferrin (0.01 mg/mL), insulin (5 μg/mL), retinoic acid (0.1 ng/mL), triiodthyronine (6.5 ng/mL), gentamicin (0.05 mg/mL) and amphotericin (0.05 μg/mL), all purchased from Clonetics Cell Systems (St. Katharinen, Germany). Cultures were held at 37° C. in a humidified atmosphere of 5% CO2 in air and the medium was changed every other day. • Stimulation of cells and fatty acid supplementation. Cis-9,trans-11-CLA and linoleic acid (LA) were obtained from Matreya Inc. (Pleasant Gap, Pa., USA). Purified fatty acids in oil form were dissolved in 96% ethanol to give a 20-mM stock solution, which was further diluted in growth medium to produce the range of test concentrations (20 μg/mL, 10 μg/mL and 5 μg/mL CLA and LA, respectively). At confluence, the cells were detached by exposure to trypsin/EDTA solution (0.05/0.02% in Ca^2+- and Mg^2+-free phosphate buffered saline; Biochrom AG, Krefeld, Germany) and reseeded in 12-well plates at a concentration of 1×10^5 cells/well and cultured for 24 h to allow the cells to attach to the substratum. The medium was then replaced and a final volume of 1 ml of each CLA- and LA-test concentrations, supplemented with 5 μg LPS/mL (lipopolysaccharide, E-coli serotype 026:B6, Sigma, Taufkirchen, Germany) and 10% serum from allergic donors, was added to the wells. A similar volume of fatty acid-free medium containing the indicated stimuli and 0.4% ethanol, corresponding to the max. volume in experimental wells, was used in stimulated control. 1 ml of fresh growth medium containing 0.4% ethanol without any fatty acid and stimuli underwent the same measures of preparation and represented the unstimulated control. After incubation for 24 h at 37° C., supernatants were harvested, separated from non-adherent cells and cell debris by centrifugation (1300 rpm, 10 min), and kept at −20° C. until cytokine analysis. Cells were trypsinised to determine cell numbers and allow quantification of differences in cell proliferation in response to different treatments. • Measurement of IL-6 and IL-8 in cell culture supernatants. IL-6 and IL-8 production of epithelial cells were estimated in duplicate by enzyme-linked immunosorbent assay using commercially available ELISA kits (Pharmingen, Heidelberg, Germany) according to the manufacturer's guidelines. Standard curves and blank buffer were included in duplicate in each assay. When necessary, samples were diluted to fit into the assay range. Specific interleukin concentrations were expressed as picograms of interleukin per millilitre. • Estimation of cytokine gene expression with RT-PCR. Cultures of BEAS-2B and NHBE at an initial density of 1×10^5 cells/well were stimulated as described above and treated with cis-9,trans-11-CLA or LA in the highest concentration (20 μg/mL) for 4 h or 12 h before total cellular RNA was isolated for cytokine gene expression analysis by reverse transcriptase-polymerase chain reaction. Total RNA preparations were performed by DNase treatment according to the standard protocol of the High-Pure™ RNA isolation kit from Roche (Mannheim, Germany). For RT-PCR analysis, first strand cDNA was synthesized from extracted RNA using random primers, reagents and conditions supplied in the ProSTAR™ First-Strand RT-PCR kit from Stratagene (Amsterdam, Netherlands). One-tenth of the synthesized cDNA was subjected to PCRamplification in a total volume of 25 μl. […]

IL-6 [2] = assay: IL-6 in cell culture supernatants by ELISA, stimulated BEAS-2B; format: cell-based, human
Method: as §1

NHBE = assay: Proliferation of LPS/serum-stimulated cells (cell numbers after 24 h); format: cell-based, human
Method: as §1

BEAS-2B = assay: as above; format: cell-based, human
Method: as §1

IL-8 mRNA = assay: Quantification of IL-8 mRNA by RT-PCR in stimulated bronchial epithelial cells; format: cell-based, human; conditions: 20 μg/mL, 4 h and 12 h, LPS/serum-stimulated, RT-PCR with cyclophilin as internal standard
Method: (§2) • Cell cultures. The transformed human bronchial epithelial cell line BEAS-2B (Clonetics Cell Systems, St. Katharinen, Germany) and the normal human bronchial epithelial cell line in primary culture (American Type Culture Collection, Manassas, Va., USA) were cultured in T-25-tissue flasks in bronchial/tracheal epithelial cell basal medium (BEBM) supplemented with a variety of growth factors including bovine pituitary extract (0,052 mg/mL), human recombinant epidermal growth factor (0.5 ng/mL), hydrocortisone (0.5 μg/mL), epinephrine (0.5 μg/mL), transferrin (0.01 mg/mL), insulin (5 μg/mL), retinoic acid (0.1 ng/mL), triiodthyronine (6.5 ng/mL), gentamicin (0.05 mg/mL) and amphotericin (0.05 μg/mL), all purchased from Clonetics Cell Systems (St. Katharinen, Germany). Cultures were held at 37° C. in a humidified atmosphere of 5% CO2 in air and the medium was changed every other day. • Stimulation of cells and fatty acid supplementation. […] Cells were trypsinised to determine cell numbers and allow quantification of differences in cell proliferation in response to different treatments. • Measurement of IL-6 and IL-8 in cell culture supernatants. […] Specific interleukin concentrations were expressed as picograms of interleukin per millilitre. • Estimation of cytokine gene expression with RT-PCR. […]

[3] = test system: eosinophilic granuloctyes; assay: Apoptosis of eosinophilic granulocytes in vitro; format: cell-based
IL-6 mRNA = assay: Quantification of IL-6 mRNA by RT-PCR in stimulated bronchial epithelial cells; format: cell-based, human; conditions: 20 μg/mL, 4 h and 12 h, LPS/serum-stimulated, RT-PCR with cyclophilin as internal standard
Method: as §2

IL-8 [4] = assay: IL-8 in cell culture supernatants by ELISA, stimulated BEAS-2B; format: cell-based, human
Method: as §1

IL-6 [5] = assay: IL-6 in cell culture supernatants by ELISA, stimulated NHBE; format: cell-based, human; conditions: 24 h
Method: as §1

[6] = 5 μg/mL, vs stimulated control+
[7] = 10 μg/mL, vs stimulated control+
[8] = 20 μg/mL, vs stimulated control+
[9] = BEAS-2B, 5 μg/mL, 24 h, vs stimulated control+
[10] = BEAS-2B, 10 μg/mL, 24 h, vs stimulated control+
[11] = BEAS-2B, 20 μg/mL, 24 h, vs stimulated control+
[12] = in vitro, compared to a placebo
[13] = BEAS-2B, 5 μg/mL, 24 h, LPS/serum-stimulated
[14] = BEAS-2B, 10 μg/mL, 24 h, LPS/serum-stimulated

Compound	pg IL (cytokine release/100.000 cells) (IL-8 [1]; 5 μg/mL)	pg IL (cytokine release/100.000 cells) (IL-8 [1]; 10 μg/mL)	pg IL (cytokine release/100.000 cells) (IL-8 [1]; 20 μg/mL)	pg IL (cytokine release/100.000 cells) (IL-6 [2]; BEAS-2B, 5 μg/mL, 24 h)	pg IL (cytokine release/100.000 cells) (IL-6 [2]; BEAS-2B, 10 μg/mL, 24 h)	pg IL (cytokine release/100.000 cells) (IL-6 [2]; BEAS-2B, 20 μg/mL, 24 h)	% inhibition of proliferation (NHBE; 5 μg/mL, LPS/serum-stimulated)	% inhibition of proliferation (NHBE; 10 μg/mL, LPS/serum-stimulated)	% inhibition of proliferation (BEAS-2B; [13])	% inhibition of proliferation (BEAS-2B; [14])	IL-8 mRNA accumulation compared with stimulated control (c+) (IL-8 mRNA)	IL-6 mRNA accumulation compared with stimulated control (c+) (IL-6 mRNA)	pg IL (cytokine release/100.000 cells) (IL-8 [4]; BEAS-2B, 5 μg/mL, 24 h)	pg IL (cytokine release/100.000 cells) (IL-8 [4]; BEAS-2B, 10 μg/mL, 24 h)	pg IL (cytokine release/100.000 cells) (IL-8 [4]; BEAS-2B, 20 μg/mL, 24 h)	pg IL (cytokine release/100.000 cells) (IL-6 [5]; 5 μg/mL)	pg IL (cytokine release/100.000 cells) (IL-6 [5]; 10 μg/mL)	pg IL (cytokine release/100.000 cells) (IL-6 [5]; 20 μg/mL)	also measured
CCCCCC/C=C/C=C\CCCCCCCC(=O)O (single isomer, unassigned) [CLA, cis-9,trans-11 isomer of conjugated linoleic acid]	6212 ± 513 pg/100.000 cells	5659 ± 812 pg/100.000 cells	6793 ± 545 pg/100.000 cells	983 ± 175 pg/100.000 cells	841 ± 184 pg/100.000 cells	792 ± 152 pg/100.000 cells	5.3 ± 3.7%	15.4±3.6%	7.9±5.1%	19.3±5.0%	diminished	diminished	1774 ± 154 pg/100.000 cells	1667 ± 160 pg/100.000 cells	1458 ± 136 pg/100.000 cells	2049 ± 262 pg/100.000 cells	2062 ± 707 pg/100.000 cells	1731 ± 387 pg/100.000 cells	% inhibition of IL-8-secretion (IL-8 [1]; [6]): 33.3 ± 8.1%; % inhibition of IL-8-secretion (IL-8 [1]; [7]): 46.0±8.1%; % inhibition of IL-8-secretion (IL-8 [1]; [8]): 35.9 ± 11.4%; % inhibition of IL-6-secretion (IL-6 [2]; [9]): 59.9±7.1%; % inhibition of IL-6-secretion (IL-6 [2]; [10]): 69.7 ± 7.6%; % inhibition of IL-6-secretion (IL-6 [2]; [11]): 76.4±4.4%; reduced expression of IL-6 (summary statement) (IL-6 [2]; [12]): about 70%; % inhibition of proliferation (NHBE; 20 μg/mL, LPS/serum-stimulated): 17.4±2.8%; % inhibition of proliferation (BEAS-2B; BEAS-2B, 20 μg/mL, 24 h, 5 μg LPS/mL + 10% serum from allergic donors): 32.7±5.0%; inhibition of cell proliferation of bronchial epithelial cells (summary statement) (BEAS-2B; in vitro, epithelial cells, mainly bronchial epithelial cells): up to 30%; apoptosis of eosinophilic granulocytes [3]: support of apoptosis; % inhibition of IL-8-secretion (IL-8 [4]; [9]): 25.6±3.6%; % inhibition of IL-8-secretion (IL-8 [4]; [10]): 38.8 ± 5.2%; % inhibition of IL-8-secretion (IL-8 [4]; [11]): 55.2±5.2%; reduced expression of IL-8 (summary statement) (IL-8 [4]; [12]): about 50%; % inhibition of IL-6-secretion (IL-6 [5]; [6]): 56.9±4.9%; % inhibition of IL-6-secretion (IL-6 [5]; [7]): 62.3 ± 10.2%; % inhibition of IL-6-secretion (IL-6 [5]; [8]): 68.6±5.3%
CCCCC/C=C\C/C=C\CCCCCCCC(=O)O [LA, cis-9,cis-12-octadecadienoic acid, reference compound]	6820 ± 543 pg/100.000 cells	6252 ± 462 pg/100.000 cells	5420 ± 1032 pg/100.000 cells	1440 ± 78 pg/100.000 cells	1220 ± 120 pg/100.000 cells	1181 ± 256 pg/100.000 cells	no effect	no effect	no effect	no effect	no effect	no effect	1483 ± 209 pg/100.000 cells	1341 ± 110 pg/100.000 cells	1533 ± 121 pg/100.000 cells	3052 ± 292 pg/100.000 cells	2906 ± 530 pg/100.000 cells	2007 ± 924 pg/100.000 cells	inhibition at 5 µg/mL (IL-8 [1]; Homo sapiens, 5 μg/mL, vs stimulated control+, read-out: % inhibition of IL-8-secretion): 22.8 ± 5.2%; inhibition at 10 µg/mL (IL-8 [1]; Homo sapiens, 10 μg/mL, vs stimulated control+, read-out: % inhibition of IL-8-secretion): 27.8 ± 10.8%; inhibition at 20 µg/mL (IL-8 [1]; Homo sapiens, 20 μg/mL, vs stimulated control+, read-out: % inhibition of IL-8-secretion): 43.3 ± 14.3%; inhibition at 5 µg/mL (IL-6 [2]; Homo sapiens, BEAS-2B, 5 μg/mL, 24 h, vs stimulated control+, read-out: % inhibition of IL-6-secretion): 23.1 ± 8.9%; inhibition at 10 µg/mL (IL-6 [2]; Homo sapiens, BEAS-2B, 10 μg/mL, 24 h, vs stimulated control+, read-out: % inhibition of IL-6-secretion): 38.4 ± 6.6%; inhibition at 20 µg/mL (IL-6 [2]; Homo sapiens, BEAS-2B, 20 μg/mL, 24 h, vs stimulated control+, read-out: % inhibition of IL-6-secretion): 50.2 ± 14.1%; inhibition at 20 µg/mL (NHBE; Homo sapiens, 20 μg/mL, LPS/serum-stimulated): 8.4 ± 2.1%; effect on proliferation at lower concentrations (NHBE; concentrations below 20 μg/mL): caused cell growth; effect on proliferation at lower concentrations (BEAS-2B; BEAS-2B, concentrations below 20 μg/mL, 24 h): caused cell growth; inhibition at 20 µg/mL (BEAS-2B; Homo sapiens, BEAS-2B, 20 μg/mL, 24 h, 5 μg LPS/mL + 10% serum from allergic donors): 4.7 ± 6.9%; inhibition at 5 µg/mL (IL-8 [4]; Homo sapiens, BEAS-2B, 5 μg/mL, 24 h, vs stimulated control+, read-out: % inhibition of IL-8-secretion): 19.3 ± 8.7%; inhibition at 10 µg/mL (IL-8 [4]; Homo sapiens, BEAS-2B, 10 μg/mL, 24 h, vs stimulated control+, read-out: % inhibition of IL-8-secretion): 30.6 ± 3.6%; inhibition at 20 µg/mL (IL-8 [4]; Homo sapiens, BEAS-2B, 20 μg/mL, 24 h, vs stimulated control+, read-out: % inhibition of IL-8-secretion): 33.5 ± 5%; inhibition at 5 µg/mL (IL-6 [5]; Homo sapiens, 5 μg/mL, vs stimulated control+, read-out: % inhibition of IL-6-secretion): 32.1 ± 5.6%; inhibition at 10 µg/mL (IL-6 [5]; Homo sapiens, 10 μg/mL, vs stimulated control+, read-out: % inhibition of IL-6-secretion): 35 ± 8.6%; inhibition at 20 µg/mL (IL-6 [5]; Homo sapiens, 20 μg/mL, vs stimulated control+, read-out: % inhibition of IL-6-secretion): 60 ± 16.3%
